The record followed here is US20210038579A1, “Treatment Of Patients With Classic Fabry Disease” (Amicus Therapeutics, Inc., priority 2018, published 2021).

Holding throughout (assay): HEK assay: α-Gal A activity in HEK-293 cell lysate with migalastat
Assay type in all cases: cell-based

Test [1] concerns the target T1, α-Gal A mutant form p.Leu243Phe (c.729 G > C) (Homo sapiens, UniProt P06280, L243F).
T1 construct: expressed in transfected cells; host or cells: HEK-293
T1 sequence (P06280 32-429 L243F): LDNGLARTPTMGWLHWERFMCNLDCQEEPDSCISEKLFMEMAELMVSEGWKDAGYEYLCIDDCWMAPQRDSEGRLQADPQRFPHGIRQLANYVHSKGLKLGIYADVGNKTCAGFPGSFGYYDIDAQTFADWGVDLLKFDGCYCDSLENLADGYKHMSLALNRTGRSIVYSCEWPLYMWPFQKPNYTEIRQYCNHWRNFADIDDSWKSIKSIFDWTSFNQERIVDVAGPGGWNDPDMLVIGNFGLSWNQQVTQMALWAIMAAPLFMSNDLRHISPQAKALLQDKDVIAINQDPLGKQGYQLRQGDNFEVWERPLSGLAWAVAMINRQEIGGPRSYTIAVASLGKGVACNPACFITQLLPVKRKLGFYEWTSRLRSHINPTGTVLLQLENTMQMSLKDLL
The method, boiled down: (§1)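 Transient HEK-293 expression of mutant α-Gal A; ±migalastat 17 nM–1 mM, 4–5 d; lysate α-Gal A by 4-MU-α-Gal fluorescence or western blot.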

For test [2], the target named is T2, α-Gal A mutant form p.Leu36Trp (c.107 T > G) (Homo sapiens, UniProt P06280, L36W).
T2 construct: expressed in transfected cells; host or cells: HEK-293
T2 sequence (P06280 32-429 L36W): T1 sequence (P06280 32-429 L243F) with L5W, F212L
The procedure, abridged:
as §1

In test [3] the target is T3, α-Gal A mutant form p.Gly325Arg (c.973G > C) (Homo sapiens, UniProt P06280, G325R).
T3 construct: expressed in transfected cells; host or cells: HEK-293
T3 sequence (P06280 32-429 G325R): T1 sequence (P06280 32-429 L243F) with F212L, G294R
The method, boiled down:
as §1

Test [4] has as its target T4, α-Gal A mutant form p.Leu300Pro (c.899 T > C) (Homo sapiens, UniProt P06280, L300P).
T4 construct: expressed in transfected cells; host or cells: HEK-293
T4 sequence (P06280 32-429 L300P): T1 sequence (P06280 32-429 L243F) with F212L, L269P
The method, boiled down: as §1

Test [5] deals with T5, α-Gal A mutant form p.Pro205Thr (c.613 C > A) (Homo sapiens, UniProt P06280, P205T).
T5 construct: expressed in transfected cells; host or cells: HEK-293
T5 sequence (P06280 32-429 P205T): T1 sequence (P06280 32-429 L243F) with P174T, F212L
The procedure, abridged: as §1

[6] abbreviates: +10 μM migalastat, HEK-293 cell lysate, mean ± SEM, n = 20.
Setting [7] is: HEK293, 10 μM migalastat minus baseline, read-out: Absolute increase at 10 μM (% WT).

Each structure is given as a SMILES string. Residue numbers refer to the chain shown, from its start.

On to `OC[C@H]1NC[C@H](O)[C@@H](O)[C@H]1O` [migalastat], for which the “α-Gal A activity at 10 μM (fold over baseline)” value was 5.33 fold over baseline in test [1] (10 μM migalastat); 21.49 fold over baseline in test [2] (10 μM migalastat); 10.17 fold over baseline in test [3] (10 μM migalastat); 10.35 fold over baseline in test [4] (10 μM migalastat); 3.41 fold over baseline in test [5] (10 μM migalastat). Besides, the “+Migalastat α-Gal A activity” value in test [1] (setting [6]) came out at 14370 ± 618 nmol/mg/h; in test [2] (setting [6]), 5182 ± 463 nmol/mg/h; in test [3] (setting [6]) it was 9244 ± 417 nmol/mg/h; in test [4] (setting [6]), 13219 ± 412 nmol/mg/h; in test [5] (setting [6]), 16371 ± 647 nmol/mg/h. For the same molecule, the “+Migalastat α-Gal A activity % WT” value in test [1] (setting [6]) was 42.3 ± 1.4 % WT; in test [2] (setting [6]) it was 16.6 ± 2.1 % WT; in test [3] (setting [6]), 26.6 ± 1.4 % WT; in test [4] (setting [6]), 37.9 ± 1.2 % WT; in test [5] (setting [6]) it was 48.8 ± 2.2 % WT. For the same molecule, the activation at 10 µM in test [1] (setting [7]) came out at 34.4%; in test [2] (setting [7]) it was 15.9%; in test [3] (setting [7]), 24%; in test [4] (setting [7]) it was 34.2%; in test [5] (setting [7]), 34.4%.
